Key:
[1] = target: Prostaglandin E2 receptor EP4 subtype (Homo sapiens, UniProt P35408)
Description: Antagonist activity at human EP4 expressed in CHO cells coexpressing G16-alpha assessed as intracellular calcium flux preincubated for 15 mins followed by addition of PGE2 by calcium flux assay

[2] = target: Prostaglandin E2 receptor EP4 subtype (Mus musculus, UniProt P32240); assay: Antagonist activity at mouse EP4 expressed in CHO cells coexpressing G16-alpha assessed as intracellular calcium flux preincubated for 15 mins followed by addition of PGE2 by calcium flux assay; format: functional, cell-based
[3] = target: T1, Prostaglandin E2 receptor EP1 subtype (Homo sapiens, UniProt P34995); assay: Antagonist activity at human EP1 expressed in CHO cells coexpressing G16-alpha assessed as intracellular calcium flux preincubated for 15 mins followed by addition of PGE2 by calcium flux assay; format: functional, cell-based
T1 sequence (P34995 whole entry): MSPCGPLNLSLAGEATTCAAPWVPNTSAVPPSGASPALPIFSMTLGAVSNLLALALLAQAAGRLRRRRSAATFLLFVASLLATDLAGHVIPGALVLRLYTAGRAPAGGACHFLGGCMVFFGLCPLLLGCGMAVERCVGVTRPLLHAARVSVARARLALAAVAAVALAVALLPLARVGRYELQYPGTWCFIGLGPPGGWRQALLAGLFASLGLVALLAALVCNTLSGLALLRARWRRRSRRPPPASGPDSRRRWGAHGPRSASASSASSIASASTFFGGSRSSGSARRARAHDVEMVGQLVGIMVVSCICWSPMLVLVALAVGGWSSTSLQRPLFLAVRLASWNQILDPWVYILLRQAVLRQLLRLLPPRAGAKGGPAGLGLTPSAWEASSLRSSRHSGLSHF

[4] = target: Prostaglandin E2 receptor EP2 subtype (Homo sapiens, UniProt P43116)
Description: Antagonist activity at human EP2 expressed in CHO cells coexpressing G16-alpha assessed as intracellular calcium flux preincubated for 15 mins followed by addition of PGE2 by calcium flux assay

[5] = target: T2, Prostaglandin E2 receptor EP3 subtype (Homo sapiens, UniProt P43115)
T2 sequence (P43115 whole entry): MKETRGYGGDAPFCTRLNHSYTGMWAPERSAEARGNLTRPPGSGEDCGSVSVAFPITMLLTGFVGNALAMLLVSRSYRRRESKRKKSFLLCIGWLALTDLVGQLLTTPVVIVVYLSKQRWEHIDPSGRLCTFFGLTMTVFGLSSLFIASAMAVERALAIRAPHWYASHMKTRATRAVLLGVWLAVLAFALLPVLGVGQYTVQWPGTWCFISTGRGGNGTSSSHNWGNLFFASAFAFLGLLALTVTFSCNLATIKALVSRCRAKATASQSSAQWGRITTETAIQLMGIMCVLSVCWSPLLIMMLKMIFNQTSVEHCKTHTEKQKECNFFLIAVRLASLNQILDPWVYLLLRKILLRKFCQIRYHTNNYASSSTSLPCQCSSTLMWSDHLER
Description: Antagonist activity at human EP3 expressed in CHO cells coexpressing G16-alpha assessed as intracellular calcium flux preincubated for 15 mins followed by addition of PGE2 by calcium flux assay

[6] = target: CYP2E1 (Homo sapiens, UniProt P05181); assay: Inhibition of CYP2E1 in human liver microsomes at 20 uM using chlorzoxazone as substrate incubated for 60 mins by HPLC analysis relative to control; format: ADME; details: probe chlorzoxazone
[7] = target: CYP2D6 (Homo sapiens, UniProt P10635); assay: Inhibition of CYP2D6 in human liver microsomes at 20 uM using dextromethorphan as substrate incubated for 60 mins by HPLC analysis relative to control; format: ADME; details: probe dextromethorphan
[8] = target: T3, CYP1A2 (Homo sapiens, UniProt P05177); assay: Inhibition of CYP1A2 in human liver microsomes at 20 uM using phenacetin as substrate incubated for 30 mins by HPLC analysis relative to control; format: ADME; details: probe phenacetin
T3 sequence (P05177 whole entry): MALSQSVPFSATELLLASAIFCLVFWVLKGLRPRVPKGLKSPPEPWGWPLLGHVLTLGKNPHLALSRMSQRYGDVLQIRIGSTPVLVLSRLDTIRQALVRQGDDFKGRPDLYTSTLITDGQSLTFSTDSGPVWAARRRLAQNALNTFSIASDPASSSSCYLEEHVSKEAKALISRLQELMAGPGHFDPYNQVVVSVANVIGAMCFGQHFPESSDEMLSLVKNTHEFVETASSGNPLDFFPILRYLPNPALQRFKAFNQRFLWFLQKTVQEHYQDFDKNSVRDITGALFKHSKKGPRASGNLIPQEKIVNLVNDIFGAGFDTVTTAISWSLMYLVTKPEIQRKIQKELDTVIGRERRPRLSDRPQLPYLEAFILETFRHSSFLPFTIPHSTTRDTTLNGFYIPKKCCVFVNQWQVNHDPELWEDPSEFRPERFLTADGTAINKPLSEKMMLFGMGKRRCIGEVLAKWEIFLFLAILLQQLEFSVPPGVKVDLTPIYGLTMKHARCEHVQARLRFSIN

[9] = target: T4, CYP2B6 (Homo sapiens, UniProt P20813); assay: Inhibition of CYP2B6 in human liver microsomes at 20 uM incubated for 60 mins by HPLC analysis relative to control; format: ADME
T4 sequence (P20813 whole entry): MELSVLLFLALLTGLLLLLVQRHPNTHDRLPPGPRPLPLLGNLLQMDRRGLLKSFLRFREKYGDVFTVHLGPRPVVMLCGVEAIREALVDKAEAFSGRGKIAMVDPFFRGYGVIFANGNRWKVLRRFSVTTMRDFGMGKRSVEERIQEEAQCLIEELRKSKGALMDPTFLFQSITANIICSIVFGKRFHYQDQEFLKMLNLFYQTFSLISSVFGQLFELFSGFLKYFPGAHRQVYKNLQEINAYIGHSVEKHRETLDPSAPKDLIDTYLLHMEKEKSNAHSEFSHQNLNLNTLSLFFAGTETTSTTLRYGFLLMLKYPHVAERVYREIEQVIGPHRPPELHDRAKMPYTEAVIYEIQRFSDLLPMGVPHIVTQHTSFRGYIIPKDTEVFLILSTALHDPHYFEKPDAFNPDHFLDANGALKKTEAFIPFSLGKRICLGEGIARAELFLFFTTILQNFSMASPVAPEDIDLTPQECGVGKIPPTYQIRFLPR

[10] = target: CYP2C9 (Homo sapiens, UniProt P11712); assay: Inhibition of CYP2C9 in human liver microsomes at 20 uM using tolbutamide as substrate incubated for 60 mins by HPLC analysis relative to control; format: ADME; details: probe tolbutamide
[11] = target: Cytochrome P450 3A4 (Homo sapiens, UniProt P08684); assay: Inhibition of CYP3A4 in human liver microsomes at 20 uM using testosterone as substrate incubated for 60 mins by HPLC analysis; format: ADME; details: 1 h
[12] = in vitro; details: human, liver microsomes
[13] = in vitro; details: human, liver microsomes; remark: listed apart in the source
[14] = in vitro; details: CD1, mouse, liver microsomes
[15] = in vitro; details: CD1, mouse, liver microsomes; remark: listed apart in the source
[16] = test system: CT26; assay: Antitumor activity against mouse CT26 cells xenografted in BALB/c mouse assessed as tumor growth inhibition at 150 mg/kg, po administerd daily and measured after two weeks; details: 336 h, read-out: TGI

Chain of Prostaglandin E2 receptor EP4 subtype (Mus musculus, UniProt P32240) (P32240 whole entry): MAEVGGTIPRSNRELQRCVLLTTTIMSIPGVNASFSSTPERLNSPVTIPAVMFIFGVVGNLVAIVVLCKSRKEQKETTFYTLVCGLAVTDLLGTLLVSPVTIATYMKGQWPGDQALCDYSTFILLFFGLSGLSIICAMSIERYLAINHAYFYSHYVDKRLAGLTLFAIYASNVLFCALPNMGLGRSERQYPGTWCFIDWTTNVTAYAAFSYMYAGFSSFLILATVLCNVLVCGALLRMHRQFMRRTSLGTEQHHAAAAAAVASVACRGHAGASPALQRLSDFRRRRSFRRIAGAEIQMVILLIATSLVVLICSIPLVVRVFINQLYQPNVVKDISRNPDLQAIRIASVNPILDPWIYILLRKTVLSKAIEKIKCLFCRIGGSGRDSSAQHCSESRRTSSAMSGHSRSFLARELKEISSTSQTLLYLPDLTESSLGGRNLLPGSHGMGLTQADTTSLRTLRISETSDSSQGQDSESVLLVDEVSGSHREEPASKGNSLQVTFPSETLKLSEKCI
Chain of Prostaglandin E2 receptor EP4 subtype (Homo sapiens, UniProt P35408) (P35408 whole entry): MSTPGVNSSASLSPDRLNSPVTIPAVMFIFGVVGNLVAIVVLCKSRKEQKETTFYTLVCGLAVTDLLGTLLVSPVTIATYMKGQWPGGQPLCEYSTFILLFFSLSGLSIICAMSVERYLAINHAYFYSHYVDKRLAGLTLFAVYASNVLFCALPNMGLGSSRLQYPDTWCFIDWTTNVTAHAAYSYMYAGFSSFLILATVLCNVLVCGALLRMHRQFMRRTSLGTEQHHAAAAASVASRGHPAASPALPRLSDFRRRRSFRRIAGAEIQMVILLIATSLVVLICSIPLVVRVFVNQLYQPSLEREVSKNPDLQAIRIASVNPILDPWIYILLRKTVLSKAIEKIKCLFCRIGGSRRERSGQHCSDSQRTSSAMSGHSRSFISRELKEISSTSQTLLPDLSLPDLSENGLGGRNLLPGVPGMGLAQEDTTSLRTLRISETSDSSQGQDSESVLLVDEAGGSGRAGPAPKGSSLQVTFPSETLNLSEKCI
Chain of Prostaglandin E2 receptor EP2 subtype (P43116 whole entry): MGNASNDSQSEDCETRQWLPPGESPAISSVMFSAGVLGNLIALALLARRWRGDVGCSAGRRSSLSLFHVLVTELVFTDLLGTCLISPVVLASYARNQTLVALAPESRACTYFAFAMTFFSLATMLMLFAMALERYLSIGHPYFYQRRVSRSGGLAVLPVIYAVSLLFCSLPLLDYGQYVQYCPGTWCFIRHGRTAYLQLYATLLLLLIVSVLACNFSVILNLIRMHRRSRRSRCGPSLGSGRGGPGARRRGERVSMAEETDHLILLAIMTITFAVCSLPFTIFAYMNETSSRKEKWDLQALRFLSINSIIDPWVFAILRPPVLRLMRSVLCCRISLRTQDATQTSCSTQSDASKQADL
Chain of CYP2D6 (P10635 whole entry): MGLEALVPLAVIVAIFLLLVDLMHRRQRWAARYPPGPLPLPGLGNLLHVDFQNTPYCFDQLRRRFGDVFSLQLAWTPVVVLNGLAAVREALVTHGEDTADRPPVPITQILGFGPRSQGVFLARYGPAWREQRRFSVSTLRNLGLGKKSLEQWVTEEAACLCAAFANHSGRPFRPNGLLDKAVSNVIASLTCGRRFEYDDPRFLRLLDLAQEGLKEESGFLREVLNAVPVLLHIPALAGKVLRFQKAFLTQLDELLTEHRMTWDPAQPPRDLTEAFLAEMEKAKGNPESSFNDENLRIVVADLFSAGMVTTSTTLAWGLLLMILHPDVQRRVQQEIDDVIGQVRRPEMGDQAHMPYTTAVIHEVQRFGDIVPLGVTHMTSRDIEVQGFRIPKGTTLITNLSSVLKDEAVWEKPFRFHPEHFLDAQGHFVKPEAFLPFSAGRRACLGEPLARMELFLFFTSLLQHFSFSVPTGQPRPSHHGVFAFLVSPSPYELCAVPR
Chain of Cytochrome P450 3A4 (P08684 whole entry): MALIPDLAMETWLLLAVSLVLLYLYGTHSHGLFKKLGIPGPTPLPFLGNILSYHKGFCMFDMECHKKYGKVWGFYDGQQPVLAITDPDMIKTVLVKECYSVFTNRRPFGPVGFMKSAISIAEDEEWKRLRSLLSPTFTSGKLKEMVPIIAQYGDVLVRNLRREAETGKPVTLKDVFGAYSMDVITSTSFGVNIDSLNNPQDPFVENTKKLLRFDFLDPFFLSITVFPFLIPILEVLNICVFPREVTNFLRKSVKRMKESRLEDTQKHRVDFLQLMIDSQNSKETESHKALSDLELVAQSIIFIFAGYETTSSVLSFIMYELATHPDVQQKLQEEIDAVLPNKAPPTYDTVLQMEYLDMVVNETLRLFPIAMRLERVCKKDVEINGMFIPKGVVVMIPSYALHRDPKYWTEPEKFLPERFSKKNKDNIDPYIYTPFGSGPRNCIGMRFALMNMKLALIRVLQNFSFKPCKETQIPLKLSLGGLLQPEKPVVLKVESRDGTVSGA
Chain of CYP2C9 (P11712 whole entry): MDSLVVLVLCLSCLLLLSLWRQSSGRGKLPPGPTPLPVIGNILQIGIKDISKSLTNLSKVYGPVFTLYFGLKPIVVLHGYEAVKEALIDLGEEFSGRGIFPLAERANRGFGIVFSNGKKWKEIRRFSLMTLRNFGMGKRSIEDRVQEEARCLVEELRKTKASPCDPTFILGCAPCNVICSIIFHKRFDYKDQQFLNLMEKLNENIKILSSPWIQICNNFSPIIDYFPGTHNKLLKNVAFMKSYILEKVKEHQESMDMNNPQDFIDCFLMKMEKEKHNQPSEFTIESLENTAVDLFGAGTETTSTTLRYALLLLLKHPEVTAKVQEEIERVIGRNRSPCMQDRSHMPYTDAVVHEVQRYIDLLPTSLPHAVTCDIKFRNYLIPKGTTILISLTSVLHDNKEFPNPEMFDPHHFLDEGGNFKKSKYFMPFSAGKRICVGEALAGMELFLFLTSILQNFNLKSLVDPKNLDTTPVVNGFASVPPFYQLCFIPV
Chain of CYP2E1 (P05181 whole entry): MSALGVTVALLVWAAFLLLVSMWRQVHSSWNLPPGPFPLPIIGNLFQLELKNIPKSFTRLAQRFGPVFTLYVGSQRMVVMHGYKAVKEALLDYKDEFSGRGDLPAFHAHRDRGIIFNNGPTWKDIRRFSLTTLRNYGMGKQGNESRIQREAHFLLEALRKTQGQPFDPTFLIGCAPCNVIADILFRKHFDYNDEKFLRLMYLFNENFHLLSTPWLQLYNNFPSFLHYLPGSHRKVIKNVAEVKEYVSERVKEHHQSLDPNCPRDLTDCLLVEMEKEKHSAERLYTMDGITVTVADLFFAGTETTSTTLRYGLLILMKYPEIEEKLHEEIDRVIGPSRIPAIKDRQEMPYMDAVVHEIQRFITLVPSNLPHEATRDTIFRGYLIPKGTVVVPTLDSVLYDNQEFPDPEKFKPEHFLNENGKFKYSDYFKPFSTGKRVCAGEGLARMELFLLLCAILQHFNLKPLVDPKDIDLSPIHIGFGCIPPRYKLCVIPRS

Compound: COc1ccc(Cn2nnc(-c3ccccc3)c2C(=O)N[C@@H](C)c2ccc(C(=O)O)cc2)cc1OC
- IC50 [1]: 119 nM

Compound: C[C@H](NC(=O)c1c(C2CCCCC2)nnn1Cc1ccc(C(F)(F)F)cc1)c1ccc(C(=O)O)cc1
- IC50 [1]: 161 nM

Compound: Cc1ccc(-c2nnn(Cc3ccc(C(F)(F)F)cc3)c2C(=O)N[C@@H](C)c2ccc(C(=O)O)cc2)s1
- IC50 [2]: 42.1 nM
- IC50 [3]: > 10000 nM
- IC50 [4]: > 10000 nM
- IC50 [5]: > 10000 nM

Compound: C/C=C/c1nnn(Cc2ccc(C(F)(F)F)cc2)c1C(=O)NCC1CCC(C(=O)O)CC1 (stereo not drawn)
- IC50 [2]: 220 nM

Compound: C[C@H](NC(=O)c1c(-c2ccc(F)cc2)nnn1Cc1ccc(C(F)(F)F)cc1)c1ccc(C(=O)O)cc1
- IC50 [1]: 57.9 nM

Compound: C[C@H](NC(=O)c1c(C2=CCCCC2)nnn1Cc1ccc(C(F)(F)F)cc1)c1ccc(C(=O)O)cc1
- IC50 [1]: 183 nM

Compound: C[C@H](NC(=O)c1c(-c2ccccc2)nnn1CCOc1ccc(C(F)(F)F)cc1)c1ccc(C(=O)O)cc1
- IC50 [1]: 49.1 nM

Compound: C/C=C/c1nnn(Cc2ccc(C(F)(F)F)cc2)c1C(=O)NC1(c2ccc(C(=O)O)cc2)CC1
- IC50 [2]: 33.7 nM
- IC50 [1]: 13.9 nM

Compound: C[C@H](NC(=O)c1nnn(CCc2ccc(F)cc2)c1C(F)(F)F)c1ccc(C(=O)O)cc1
- IC50 [1]: > 10000 nM

Compound: C[C@H](NC(=O)c1c(-c2ccccc2)nnn1CC1CCCCC1)c1ccc(C(=O)O)cc1
- IC50 [1]: > 10000 nM

Compound: C[C@H](NC(=O)c1nnn(Cc2ccc(C(F)(F)F)cc2)c1C(F)(F)F)c1ccc(C(=O)O)cc1
- IC50 [1]: > 10000 nM

Compound: CCc1nnn(Cc2ccc(C(F)(F)F)cc2)c1C(=O)N[C@@H](C)c1ccc(C(=O)O)cc1
- IC50 [1]: > 10000 nM

Compound: C[C@H](NC(=O)c1c(C2CCC2)nnn1Cc1ccc(C(F)(F)F)cc1)c1ccc(C(=O)O)cc1
- IC50 [1]: 75.3 nM

Compound: CC#Cc1nnn(Cc2ccc(C(F)(F)F)cc2)c1C(=O)N[C@@H](C)c1ccc(C(=O)O)cc1
- inhibition at 1 h, 20 µM [6]: 76%
- inhibition at 1 h, 20 µM [7]: 38%
- IC50 [2]: 70.9 nM
- IC50 [3]: > 10000 nM
- inhibition at 0.5 h, 20 µM [8]: 82%
- inhibition at 1 h, 20 µM [9]: 34%
- inhibition at 1 h, 20 µM [10]: 69%
- inhibition (INH) [11]: Not Active
- IC50 [1]: 32 nM
- IC50 [4]: > 10000 nM

Compound: O=C(O)Cc1ccccc1Nc1c(Cl)cccc1Cl [DICLOFENAC]
- half-life at 1 h, 10 µM [12]: 10.6 min
- microsomal CLint at 1 h, 10 µM [13]: 131 µL/min/mg
- half-life at 1 h, 10 µM [14]: 53.6 min
- microsomal CLint at 1 h, 10 µM [15]: 25.8 µL/min/mg

Compound: C[C@H](NC(=O)c1c(C(F)F)nn(C)c1Oc1cccc(C(F)(F)F)c1)c1ccc(C(=O)O)cc1 [PALUPIPRANT]
- inhibition at 1 h, 20 µM [6]: 79%
- inhibition at 1 h, 20 µM [7]: 35%
- IC50 [2]: 181 nM
- inhibition at 0.5 h, 20 µM [8]: 41%
- inhibition at 1 h, 20 µM [9]: 23%
- inhibition at 1 h, 20 µM [10]: 67%
- inhibition (INH) [11]: Not Active
- inhibition in vivo at 150 mg/kg [16]: 43.2%

Compound: C[C@]12CC[C@H]3[C@@H](CCC4=CC(=O)CC[C@@]43C)[C@@H]1CC[C@@H]2O [TESTOSTERONE]
- half-life at 1 h, 10 µM [12]: 19.4 min
- microsomal CLint at 1 h, 10 µM [13]: 71.3 µL/min/mg
- half-life at 1 h, 10 µM [14]: 2.9 min
- microsomal CLint at 1 h, 10 µM [15]: 479 µL/min/mg

— ChEMBL document CHEMBL4376865, “Discovery and Characterization of 1H-1,2,3-Triazole Derivatives as Novel Prostanoid EP4 Receptor Antagonists for Cancer Immunotherapy” (J Med Chem, 2020)
